In article PMC3128934, “Substrate Pathways and Mechanisms of Inhibition in the Sulfur Oxygenase Reductase of Acidianus Ambivalens” (Frontiers in Microbiology, 2011):

Assays:
[1] = system: sulfur oxygenase reductase (SOR); set-up: method as in Kletzin, [1989]; conditions: ref Kletzin, [1989], cited from earlier work; for residual activity for the oxidized reaction products: 0.1 mM inhibitor; for oxygenase activity remaining: 1 mM inhibitor
[2] = biological target: sulfur oxygenase reductase (SOR) H166A mutant (Acidianus ambivalens, UniProt P29082, H166A); assay: biochemical; conditions: for Ki: Ki-value (half-maximal inhibitory concentration), H166A mutant
sulfur oxygenase reductase (SOR) H166A mutant, sequence (P29082 whole entry H166A): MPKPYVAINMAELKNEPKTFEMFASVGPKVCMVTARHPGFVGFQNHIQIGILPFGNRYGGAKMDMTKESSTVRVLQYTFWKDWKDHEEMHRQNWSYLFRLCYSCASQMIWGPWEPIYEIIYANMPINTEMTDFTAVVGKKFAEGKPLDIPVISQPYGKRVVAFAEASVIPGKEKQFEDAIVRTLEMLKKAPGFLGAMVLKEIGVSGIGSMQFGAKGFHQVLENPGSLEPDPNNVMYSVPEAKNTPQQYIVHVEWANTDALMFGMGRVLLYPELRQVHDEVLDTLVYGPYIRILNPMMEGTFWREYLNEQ
Description: (§1) Specific activities of the wild type and mutant proteins were determined by incubation of 2–5 μg of purified enzyme/ml of Tris–HCl buffer pH 7.2 containing 2% sulfur and 0.1% of Tween 20 as described previously (Kletzin, [1989]; Urich et al., [2004], [2005b]). Samples were taken at appropriate time points (usually after 0, 2, 4, 6, 8, and 10 min) and the concentration of the products was determined colorimetrically. Specific activities were calculated from the linear increase of product concentrations (Kletzin, [1989]). At least two activity measurements were performed for each mutant using independently purified protein preparations (see below, Table 2). Iron quantification was performed with pure protein preparations using the 2,4,6-tripyridyl-1,3,5-triazine method (TPTZ; Fischer and Price, [1964]). Protein concentrations were determined by the Coomassie Blue method (Bradford, [1976]) or using the BCA Protein Assay Kit (Novagen/Merck, Darmstadt, Germany) according to the manufacturer's instructions. Samples of purified proteins were separated by SDS-PAGE (Schägger and von Jagow, [1987]) and visualized with colloidal Coomassie Blue staining (Roti-Blue; Roth, Karlsruhe, Germany).
(§2) Zinc inhibition assays of the wild type and mutant proteins were performed by addition of a freshly prepared zinc chloride solution to the reaction buffer in concentrations ranging from 0.01 to 1 mM (Kletzin, [1989]). After addition of the enzyme, the mixture was incubated for 30 min at room temperature before starting the reaction by heating to 85°C and measurement of the specific activities. A zinc/buffer mixture without protein was used as a negative control.

[3] = biological target: sulfur oxygenase reductase (SOR) wild type (Acidianus ambivalens, UniProt P29082); assay: biochemical; conditions: Ki-value (half-maximal inhibitory concentration), wild type enzyme, 30 min preincubation at room temperature, reaction at 85°C
sulfur oxygenase reductase (SOR) wild type, sequence (P29082 whole entry): as the sequence (P29082 whole entry H166A) above, with A166H counted along it
Description: as §1, §2

[4] = biological target: sulfur oxygenase reductase (SOR) H277A mutant (Acidianus ambivalens, UniProt P29082, H277A); assay: biochemical; conditions: for Ki: Ki-value (half-maximal inhibitory concentration), H277A mutant
sulfur oxygenase reductase (SOR) H277A mutant, sequence (P29082 whole entry H277A): as the sequence (P29082 whole entry H166A) above, with A166H, H277A counted along it
Description: as §1, §2

In the case of [Hg+2] [Hg^2+], the “residual activity for the oxidized reaction products” value [1] is given as 37%.

In the case of NC(=O)CI [IAA, iodoacetamide], the oxygenase activity remaining [1] is given as 27%.

For CCN1C(=O)C=CC1=O [NEM, N-ethylmaleimide], the oxygenase activity remaining [1] is listed as 47%.

In the case of [Zn+2] [zinc chloride], the “residual activity for the oxidized reaction products” value [1] is given as 74%, the “Increase of Ki-value compared to the wild type” value ([2]; H166A mutant vs wild type) is given as “two- to threefold” and the Ki ([2]; oxygenase activity) is given as 121 µM. For the same compound, the Ki ([2]; reductase activity) was 150 µM, the Ki ([3]; oxygenase activity) was 45 µM and the Ki ([3]; reductase activity) was 39 µM. The “Increase of Ki-value compared to the wild type” value ([4]; H277A mutant vs wild type) was “two- to threefold”, the Ki ([4]; oxygenase activity) was 157 µM and the Ki ([4]; reductase activity) was 144 µM.
